According to US11613531B2, “Inhibitors of RHO associated coiled-coil containing protein kinase” (Kadmon Corporation, LLC, priority 2017, dated 2023):

The compounds below were run on ppMlc (T18/S19) levels in A7R5 cells (assay: A7R5 in-cell ELISA (pMLC)). Conditions: Rattus norvegicus, A7R5, A7R5 cells, 1 μM compound; read-out: pMLC % inh A7R5 @ [conc].
Assay type: cell-based, Rat
Method: Determination of Compounds ROCK Inhibitory Activity in A7R5Cells.
Rat aortic smooth muscle cell line, A7R5, cells were seeded with density of 5,000 cells/well in a 96-well plates for 24 hours and subsequently treated for 90 min with testing compounds. Cells were then fixed and processed according to the In-Cell ELISA Colorimetric Detection Kit manual (Thermo Scientific).
An A7R5 in-cell Elisa assay was performed. A7R5 cells were treated with 9 points 2 fold serial dilution of compounds and ppMlc (T18/S19) levels were determined to calculate cellular IC50 values of the compounds. Compounds of the invention gave in cell IC50s under 100 nM.
In vitro activities for the compounds were measured with Z′-lyte kinase kit (ThermoFisher Scientific). The percent inhibition rate was calculated by normalizing the kinase activity value obtained with 1 μM compound treatment against DMSO control value and then applied to the formula, [1-(compound/DMSO)]×100%. IC50s were calculated using the nonlinear regression curve fit function of the GraphPad Prism software with kinase activities data measured with 9 points 2-fold serial dilution of compounds treatment. In cell pMLC IC50s were calculated with data obtained from A7R5 cell experiments. A7R5 cells were treated with 9 points 2-fold serial dilution of compounds and ppMlc (T18/S19) levels were determined to calculate cellular IC50 values of the compounds using the nonlinear regression curve fit function of the GraphPad Prism software. NIH3T3 cells stably expressing ACTA2-promoter-driven-luciferase were applied to measure ROCK compounds functional IC50s in cells. Cells were plated in 96 well plates to confluence and treated with 9 points serial dilution of compounds in combination with TGFβ1 for 24 hr. Luciferase activities were measured and compound's IC50s were calculated using the nonlinear regression curve fit function of the GraphPad Prism software.
In the case of `c1cc(Nc2ccc3[nH]ncc3c2)nc(N2CC3(CCNC3)C2)n1` [Example 75, N-(2-(2,6-diazaspiro[3.4]octan-2-yl)pyrimidin-4-yl)-1H-indazol-5-amine], the inhibition at 1 µM was -8.7%. `Cc1cc(Nc2ccc3[nH]ncc3c2)nc(N2CCCC3(CCNC3)C2)n1` (stereo not shown) [Example 125, N-(6-methyl-2-(2,7-diazaspiro[4.5]decan-7-yl)pyrimidin-4-yl)-1H-indazol-5-amine] was tested, and the inhibition at 1 µM was 0.7%. `Cc1cc(Nc2ccc3[nH]ncc3c2)nc(N2CCC3(CCCNC3)C2)n1` (stereo not shown) [Example 124, N-(6-methyl-2-(2,7-diazaspiro[4.5]decan-2-yl)pyrimidin-4-yl)-1H-indazol-5-amine] showed an inhibition at 1 µM of -7.6%. For `Cc1cc(Nc2ccc3[nH]ncc3c2)nc(N2CC3(CCNC3)C2)n1` [Example 126, N-(6-methyl-2-(2,6-diazaspiro[3.4]octan-2-yl)pyrimidin-4-yl)-1H-indazol-5-amine], the inhibition at 1 µM was -12.3%. Work on `Cc1cc(Nc2ccc3[nH]ncc3c2)nc(N2CCC3(CNC3)C2)n1` [Example 122, N-(6-methyl-2-(2,6-diazaspiro[3.4]octan-6-yl)pyrimidin-4-yl)-1H-indazol-5-amine] yielded an inhibition at 1 µM of -6.8%. `c1cc(Nc2ccc3[nH]ncc3c2)nc(N2CC3CNCC(C3)C2)n1` [Example 79, N-(2-(3,7-diazabicyclo[3.3.1]nonan-3-yl)pyrimidin-4-yl)-1H-indazol-5-amine] showed an inhibition at 1 µM of 9.8%. `c1cc(Nc2ccc3[nH]ncc3c2)nc(N2CCC3(CNC3)C2)n1` [Example 71, N-(2-(2,6-diazaspiro[3.4]octan-6-yl)pyrimidin-4-yl)-1H-indazol-5-amine] gave an inhibition at 1 µM of -12.8%. Work on `Cc1cc(Nc2ccc3[nH]ncc3c2)nc(N2CC3(CCNCC3)C2)n1` [Example 127, N-(6-methyl-2-(2,7-diazaspiro[3.5]nonan-2-yl)pyrimidin-4-yl)-1H-indazol-5-amine] yielded an inhibition at 1 µM of -7.2%. For `c1cc(Nc2ccc3[nH]ncc3c2)nc(N2CCC3NCCC3C2)n1` (stereo not shown) [Example 80, N-(2-(octahydro-5H-pyrrolo[3,2-c]pyridin-5-yl)pyrimidin-4-yl)-1H-indazol-5-amine], the inhibition at 1 µM was 11.9%. `c1cc(Nc2ccc3[nH]ncc3c2)nc(N2CCC3(CC2)CNC3)n1` [Example 70, N-(2-(2,7-diazaspiro[3.5]nonan-7-yl)pyrimidin-4-yl)-1H-indazol-5-amine] showed an inhibition at 1 µM of -9.7%. In the case of `Fc1cnc(N2CC3(CCNCC3)C2)nc1Nc1ccc2[nH]ncc2c1` [Example 164, N-(5-fluoro-2-(2,7-diazaspiro[3.5]nonan-2-yl)pyrimidin-4-yl)-1H-indazol-5-amine], the inhibition at 1 µM was -8.3%. Work on `Fc1cnc(N2CCC3(CC2)CNC3)nc1Nc1ccc2[nH]ncc2c1` [Example 158, N-(5-fluoro-2-(2,7-diazaspiro[3.5]nonan-7-yl)pyrimidin-4-yl)-1H-indazol-5-amine] yielded an inhibition at 1 µM of -1.1%. For `O=C1CN(c2nccc(Nc3ccc4[nH]ncc4c3)n2)CCN1` [Example 17, 4-(4-((1H-indazol-5-yl)amino)pyrimidin-2-yl)piperazin-2-one], the inhibition at 1 µM was 11.2%. `c1cc(Nc2ccc3[nH]ncc3c2)nc(N2CCCC3(CCNC3)C2)n1` (stereo not shown) [Example 74, N-(2-(2,7-diazaspiro[4.5]decan-7-yl)pyrimidin-4-yl)-1H-indazol-5-amine] gave an inhibition at 1 µM of 2.7%.

Same assay, conditions: Rattus norvegicus, A7R5, A7R5 cells, 10 μM compound; read-out: pMLC % inh A7R5 @ [conc]
In the case of `Fc1cnc(N2CCNC(c3ccccc3)CC2)nc1Nc1ccc2[nH]ncc2c1` (stereo not shown) [Example 142, N-(5-fluoro-2-(5-phenyl-1,4-diazepan-1-yl)pyrimidin-4-yl)-1H-indazol-5-amine], the inhibition at 10 µM was 37.5%. Compound `c1cc(Nc2ccc(-c3ccnc4[nH]cnc34)cc2)nc(N2CCNCC2)n1` [Example 366, N-(4-(3H-imidazo[4,5-b]pyridin-7-yl)phenyl)-2-(piperazin-1-yl)pyrimidin-4-amine] has an inhibition at 10 µM of 4.95%. `c1cc(Nc2ccnc(N3CCNCC3)n2)cc(-c2ccncc2)c1` [Example 345, 2-(piperazin-1-yl)-N-(3-(pyridin-4-yl)phenyl)pyrimidin-4-amine] showed an inhibition at 10 µM of 23.7%. With `CC1(C)CN(c2nccc(Nc3ccc4[nH]ncc4c3)n2)CCN1` [Example 227, N-(2-(3,3-dimethylpiperazin-1-yl)pyrimidin-4-yl)-1H-indazol-5-amine] the inhibition at 10 µM was 83.4%. Compound `CC(C)C1CCN(c2ncc(F)c(Nc3ccc4[nH]ncc4c3)n2)CCN1` (stereo not shown) [Example 145, N-(5-fluoro-2-(5-isopropyl-1,4-diazepan-1-yl)pyrimidin-4-yl)-1H-indazol-5-amine] has an inhibition at 10 µM of 42.4%. `Cc1cnc(N2CCNC(C(C)C)CC2)nc1Nc1ccc2[nH]ncc2c1` (stereo not shown) [Example 93, N-(2-(5-isopropyl-1,4-diazepan-1-yl)-5-methylpyrimidin-4-yl)-1H-indazol-5-amine] showed an inhibition at 10 µM of 21.1%. `c1ccc(C2CN(c3nccc(Nc4ccc5[nH]ncc5c4)n3)CCN2)cc1` (stereo not shown) [Example 224, N-(2-(3-phenylpiperazin-1-yl)pyrimidin-4-yl)-1H-indazol-5-amine] gave an inhibition at 10 µM of 48%. In the case of `Cc1nc(N2CCCNC(C(C)C)C2)nc(Nc2ccc3[nH]ncc3c2)c1C` (stereo not shown) [Example 16, N-(2-(3-isopropyl-1,4-diazepan-1-yl)-5,6-dimethylpyrimidin-4-yl)-1H-indazol-5-amine], the inhibition at 10 µM was 32.1%. In the case of `c1cc(Nc2ccc(-c3nnn[nH]3)cc2)nc(N2CCNCC2)n1` [Example 42, N-(4-(1H-tetrazol-5-yl)phenyl)-2-(piperazin-1-yl)pyrimidin-4-amine], the inhibition at 10 µM was 9.1%. Compound `Cc1cnc(N2CCCNC(c3ccccc3)C2)nc1Nc1ccc2[nH]ncc2c1` (stereo not shown) [Example 103, N-(5-methyl-2-(3-phenyl-1,4-diazepan-1-yl)pyrimidin-4-yl)-1H-indazol-5-amine] has an inhibition at 10 µM of 38.3%. `c1cc(Nc2ccc(-c3cn[nH]c3)cc2)nc(N2CC3CCC(C2)N3)n1` [Example 258, N-(4-(1H-pyrazol-4-yl)phenyl)-2-(3,8-diazabicyclo[3.2.1]octan-3-yl)pyrimidin-4-amine] showed an inhibition at 10 µM of 26%. `Cc1cc(Nc2ccc3[nH]ncc3c2)nc(N2CCCNC(c3ccccc3)C2)n1` (stereo not shown) [Example 112, N-(6-methyl-2-(3-phenyl-1,4-diazepan-1-yl)pyrimidin-4-yl)-1H-indazol-5-amine] was tested, and the inhibition at 10 µM was 56.9%. `COc1cnc(N2CCNC(c3ccccc3)CC2)nc1Nc1ccc2[nH]ncc2c1` (stereo not shown) [Example 50, N-(5-methoxy-2-(5-phenyl-1,4-diazepan-1-yl)pyrimidin-4-yl)-1H-indazol-5-amine] gave an inhibition at 10 µM of 35.5%. With `Clc1cnc(N2CCNC(c3ccccc3)CC2)nc1Nc1ccc2[nH]ncc2c1` (stereo not shown) [Example 184, N-(5-chloro-2-(5-phenyl-1,4-diazepan-1-yl)pyrimidin-4-yl)-1H-indazol-5-amine] the inhibition at 10 µM was 34.1%. `O=c1ccc(-c2ccc(Nc3ccnc(N4CCNCC4)n3)cc2)c[nH]1` [Example 349, 5-(4-((2-(piperazin-1-yl)pyrimidin-4-yl)amino)phenyl)pyridin-2(1H)-one] showed an inhibition at 10 µM of 4.21%. For `OCC1CNCCN1c1nccc(Nc2ccc3[nH]ncc3c2)n1` (stereo not shown) [Example 230, (1-(4-((1H-indazol-5-yl)amino)pyrimidin-2-yl)piperazin-2-yl)methanol], the inhibition at 10 µM was 16.1%. For `CC1CNCCN1c1nccc(Nc2ccc(-c3cn[nH]c3)cc2)n1` (stereo not shown) [Example 253, N-(4-(1H-pyrazol-4-yl)phenyl)-2-(2-methylpiperazin-1-yl)pyrimidin-4-amine], the inhibition at 10 µM was 41.5%. With `c1cc(-c2cn[nH]c2)ccc1Nc1nc(N2CCCNCC2)nc2c1COC2` [Example 262, N-(4-(1H-pyrazol-4-yl)phenyl)-2-(1,4-diazepan-1-yl)-5,7-dihydrofuro[3,4-d]pyrimidin-4-amine] the inhibition at 10 µM was 87%. With `c1ccc(CC2CN(c3nc4c(c(Nc5ccc6[nH]ncc6c5)n3)COC4)CCCN2)cc1` (stereo not shown) [Example 2, 2-(3-benzyl-1,4-diazepan-1-yl)-N-(1H-indazol-5-yl)-5,7-dihydrofuro[3,4-d]pyrimidin-4-amine] the inhibition at 10 µM was 72.4%. `c1ccc(C2CN(c3nccc(Nc4ccc(-c5cn[nH]c5)cc4)n3)CCN2)cc1` (stereo not shown) [Example 260, N-(4-(1H-pyrazol-4-yl)phenyl)-2-(3-phenylpiperazin-1-yl)pyrimidin-4-amine] showed an inhibition at 10 µM of 18%. `Cc1nc(N2CCCNC(c3ccccc3)C2)nc(Nc2ccc3[nH]ncc3c2)c1C` (stereo not shown) [Example 20, N-(5,6-dimethyl-2-(3-phenyl-1,4-diazepan-1-yl)pyrimidin-4-yl)-1H-indazol-5-amine] was tested, and the inhibition at 10 µM was 37.6%. With `COc1cnc(N2CCCNC(c3ccccc3)C2)nc1Nc1ccc2[nH]ncc2c1` (stereo not shown) [Example 48, N-(5-methoxy-2-(3-phenyl-1,4-diazepan-1-yl)pyrimidin-4-yl)-1H-indazol-5-amine] the inhibition at 10 µM was 51.1%. Work on `c1ccc(CC2CCNCCN2c2nc3c(c(Nc4ccc5[nH]ncc5c4)n2)COC3)cc1` (stereo not shown) [Example 236, 2-(7-benzyl-1,4-diazepan-1-yl)-N-(1H-indazol-5-yl)-5,7-dihydrofuro[3,4-d]pyrimidin-4-amine] yielded an inhibition at 10 µM of 80.8%.

Same assay, conditions: Rattus norvegicus, A7R5, A7R5 cells, ppMlc (T18/S19)
`c1ccc(C2CN(c3nccc(Nc4ccc5[nH]ncc5c4)n3)CCN2)cc1` (stereo not shown) [Example 224, N-(2-(3-phenylpiperazin-1-yl)pyrimidin-4-yl)-1H-indazol-5-amine] showed an IC50 of 3350 nM. `Cc1cc(Nc2ccc3[nH]ncc3c2)nc(N2CCCNC(c3ccccc3)C2)n1` (stereo not shown) [Example 112, N-(6-methyl-2-(3-phenyl-1,4-diazepan-1-yl)pyrimidin-4-yl)-1H-indazol-5-amine] was tested, and the IC50 was 1290 nM. `c1cc(-c2cn[nH]c2)ccc1Nc1nc(N2CCCNCC2)nc2c1COC2` [Example 262, N-(4-(1H-pyrazol-4-yl)phenyl)-2-(1,4-diazepan-1-yl)-5,7-dihydrofuro[3,4-d]pyrimidin-4-amine] was tested, and the IC50 was 3650 nM. `c1ccc(CC2CN(c3nc4c(c(Nc5ccc6[nH]ncc6c5)n3)COC4)CCCN2)cc1` (stereo not shown) [Example 2, 2-(3-benzyl-1,4-diazepan-1-yl)-N-(1H-indazol-5-yl)-5,7-dihydrofuro[3,4-d]pyrimidin-4-amine] was tested, and the IC50 was 2500 nM. For `COc1cnc(N2CCCNC(c3ccccc3)C2)nc1Nc1ccc2[nH]ncc2c1` (stereo not shown) [Example 48, N-(5-methoxy-2-(3-phenyl-1,4-diazepan-1-yl)pyrimidin-4-yl)-1H-indazol-5-amine], the IC50 was 2580 nM. For `c1ccc(CC2CCNCCN2c2nc3c(c(Nc4ccc5[nH]ncc5c4)n2)COC3)cc1` (stereo not shown) [Example 236, 2-(7-benzyl-1,4-diazepan-1-yl)-N-(1H-indazol-5-yl)-5,7-dihydrofuro[3,4-d]pyrimidin-4-amine], the IC50 was 4690 nM.
